Key:
[1] = system: IL10 secretion, OCI-LY10 cells; experiment: Human IL10 secretion assay, Assay 1 (HTRF); format: cell-based; settings: 24 h incubation, read-out: IL-10 Secretion IC50 [nM] Assay 1
Outline: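 OCI-LY10 cells (3×10^5/well, IMEM with 20% FBS) were treated with 3-fold serial compound dilutions from a 10 mM stock, 0.1% DMSO final, for 24 h. Secreted IL10 in medium was quantified by HTRF, normalised to DMSO-treated and no-cell controls, and IC50 (nM) derived by 4-parameter fit.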

[2] = molecular target: T1, full-length MALT1 protein His-MALT1(1-824) (Homo sapiens (Human), UniProt Q9UDY8); experiment: MALT1 protease assay, Assay 1 (2 nM MALT1, Ac-LRSR-AMC substrate); format: biochemical; settings: 2 nM MALT1, 50 μM Ac-LRSR-AMC, 2 h pre-incubation, 8 hr incubation at RT
Description: MALT1 protease activity was assessed in an in vitro assay using a tetrapeptide as substrate and full-length MALT1 protein His-MALT1(1-824) purified from baculovirus-infected insect cells.
The final assay buffer includes 1 nM (Assay 2) or 2 nM (Assay 1) of MALT1 full-length protein, 50 μM Ac-LRSR-AMC substrate, 50 mM Tris pH 7.5, 600 mM Sodium Citrate, 1 mM DTT, 1 mM EDTA, and 0.05% BSA in 384-well plate format using black microtiter square well plates (Optiplate 384-F, Perkin Elmer).
Test compounds were dissolved in 100% DMSO at stock of 10 mM, with final DMSO concentration 0.1%. Test compounds were pre-incubated with MALT1 protein for 2 h at room temperature. Substrate was added after the pre-incubation and fluorescence signal was measured using Envision at excitation 355 nm and emission 460 nm after 8 hr incubation at RT. Increase in the assay signal was linear over this period and proportional with increase in the enzyme content.
The fluorescence units were transformed to percentage of remaining activity by using the high control (HC, median of fluorescence signal from wells containing MALT1 protein, substrate, and DMSO) and low control (LC, median of fluorescence signal from wells with substrate only) with the formula below: […]
IC50 and Hill coefficient were obtained using Graph Pad Prism (Graph Pad software, Inc, USA) with non-linear regression analysis.

[3] = molecular target: T1, full-length MALT1 protein His-MALT1(1-824); experiment: MALT1 protease assay, Assay 2 (1 nM MALT1, Ac-LRSR-AMC substrate); format: biochemical; settings: 1 nM MALT1, 50 μM Ac-LRSR-AMC, 2 h pre-incubation, 8 hr incubation at RT
Outline: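 His-MALT1(1-824) from baculovirus-infected insect cells at 1 nM, preincubated 2 h at RT with compound (0.1% DMSO), then 50 μM Ac-LRSR-AMC in 50 mM Tris pH 7.5, 600 mM sodium citrate, 1 mM DTT, 1 mM EDTA, 0.05% BSA. Fluorescence (ex 355/em 460 nm) after 8 h at RT, normalized to enzyme and substrate-only controls. IC50 and Hill coefficient by non-linear regression.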

T1 sequence (Q9UDY8 whole entry): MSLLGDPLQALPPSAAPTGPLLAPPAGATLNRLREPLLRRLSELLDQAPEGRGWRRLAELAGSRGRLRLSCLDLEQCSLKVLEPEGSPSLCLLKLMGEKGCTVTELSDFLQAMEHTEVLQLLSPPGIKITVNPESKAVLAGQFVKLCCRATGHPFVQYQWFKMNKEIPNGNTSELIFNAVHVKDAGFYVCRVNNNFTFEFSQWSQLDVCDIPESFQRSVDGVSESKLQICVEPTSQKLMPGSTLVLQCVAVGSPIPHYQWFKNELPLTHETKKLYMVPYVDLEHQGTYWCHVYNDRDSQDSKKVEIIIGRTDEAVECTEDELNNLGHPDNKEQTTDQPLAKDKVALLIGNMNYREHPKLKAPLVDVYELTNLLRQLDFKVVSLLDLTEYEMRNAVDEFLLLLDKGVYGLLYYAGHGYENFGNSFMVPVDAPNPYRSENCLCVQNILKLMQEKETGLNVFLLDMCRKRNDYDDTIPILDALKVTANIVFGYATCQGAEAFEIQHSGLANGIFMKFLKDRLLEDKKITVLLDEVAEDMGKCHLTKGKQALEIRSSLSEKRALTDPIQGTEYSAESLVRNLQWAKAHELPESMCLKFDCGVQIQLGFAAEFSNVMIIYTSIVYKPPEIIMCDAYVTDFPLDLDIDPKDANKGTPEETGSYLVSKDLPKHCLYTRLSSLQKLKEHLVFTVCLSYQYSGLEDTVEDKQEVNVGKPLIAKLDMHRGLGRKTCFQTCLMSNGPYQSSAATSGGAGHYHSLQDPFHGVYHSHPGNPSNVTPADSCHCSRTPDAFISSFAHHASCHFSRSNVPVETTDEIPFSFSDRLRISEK

SMILES	IC50 [1] [nM]	IC50 [2] [nM]	IC50 [3] [nM]
C[C@@]1(C(F)(F)F)CN(C(=O)Nc2cc(Cl)c(=O)n(C(F)F)c2)c2cnc3cc(Cl)nn3c21 [compound 50, (R)-2-chloro-N-(5-chloro-1-(difluoromethyl)-6-oxo-1,6-dihydropyridin-3-yl)-8-methyl-8-(trifluoromethyl)-7,8-dihydro-6H-pyrazolo[1,5-a]pyrrolo[2,3-e]pyrimidine-6-carboxamide]	–	10 to 100	–
Cn1cnc(-c2ncc(NC(=O)N3C[C@@](C)(C(F)(F)F)c4c3cnc3cc(Cl)nn43)cc2Cl)c1 [compound 28, (R)-2-chloro-N-(5-chloro-6-(1-methyl-1H-imidazol-4-yl)pyridin-3-yl)-8-methyl-8-(trifluoromethyl)-7,8-dihydro-6H-pyrazolo[1,5-a]pyrrolo[2,3-e]pyrimidine-6-carboxamide]	–	10 to 100	–
CC1(C)CCN(C(=O)Nc2cnc(-n3nccn3)c(Cl)c2)c2ccc3cc(Cl)nn3c21 [compound 9, 2-chloro-N-(5-chloro-6-(2H-1,2,3-triazol-2-yl)pyridin-3-yl)-9,9-dimethyl-8,9-dihydropyrazolo[1,5-a][1,5]naphthyridine-6(7H)-carboxamide]	≥ 1000	10 to 100	–
C[C@@]1(C(F)(F)F)CN(C(=O)Nc2cnc(N3CCCC3)c(Cl)c2)c2cnc3cc(Cl)nn3c21 [compound 23, (R)-2-chloro-N-(5-chloro-6-(pyrrolidin-1-yl)pyridin-3-yl)-8-methyl-8-(trifluoromethyl)-7,8-dihydro-6H-pyrazolo[1,5-a]pyrrolo[2,3-e]pyrimidine-6-carboxamide]	–	10 to 100	–
C[C@@]1(C(F)(F)F)CN(C(=O)Nc2cnc(-n3cc(C#N)cn3)c(Cl)c2)c2cnc3cc(Cl)nn3c21 [compound 22, (R)-2-chloro-N-(5-chloro-6-(4-cyano-1H-pyrazol-1-yl)pyridin-3-yl)-8-methyl-8-(trifluoromethyl)-7,8-dihydro-6H-pyrazolo[1,5-a]pyrrolo[2,3-e]pyrimidine-6-carboxamide]	–	10 to 100	–
C[C@@]1(C(F)(F)F)CN(C(=O)Nc2cnc(CO)c(Cl)c2)c2cnc3cc(Cl)nn3c21 [compound 43, (R)-2-chloro-N-(5-chloro-6-(hydroxymethyl)pyridin-3-yl)-8-methyl-8-(trifluoromethyl)-7,8-dihydro-6H-pyrazolo[1,5-a]pyrrolo[2,3-e]pyrimidine-6-carboxamide]	100 to 1000	10 to 100	–
Cc1cc2ncc3c(n2n1)C(C)(C)CCN3C(=O)Nc1cnc(-n2nccn2)c(Cl)c1 [compound 8, N-(5-chloro-6-(2H-1,2,3-triazol-2-yl)pyridin-3-yl)-2,9,9-trimethyl-8,9-dihydropyrazolo[1,5-a]pyrido[2,3-e]pyrimidine-6(7H)-carboxamide]	100 to 1000	10 to 100	–
Cc1cc(NC(=O)N2C[C@@](C)(C(F)(F)F)c3c2cnc2cc(Cl)nn32)cnc1-n1ccnn1 [compound 30, (R)-2-chloro-8-methyl-N-(5-methyl-6-(1H-1,2,3-triazol-1-yl)pyridin-3-yl)-8-(trifluoromethyl)-7,8-dihydro-6H-pyrazolo[1,5-a]pyrrolo[2,3-e]pyrimidine-6-carboxamide]	–	10 to 100	–

Second part, the molecule after the results:

IC50 [1] [nM]	IC50 [2] [nM]	IC50 [3] [nM]	SMILES
100 to 1000	10 to 100	–	Cn1cc(-c2ncc(NC(=O)N3C[C@@](C)(C(F)(F)F)c4c3cnc3cc(Cl)nn43)cc2Cl)cn1 [compound 20, (R)-2-chloro-N-(5-chloro-6-(1-methyl-1H-pyrazol-4-yl)pyridin-3-yl)-8-methyl-8-(trifluoromethyl)-7,8-dihydro-6H-pyrazolo[1,5-a]pyrrolo[2,3-e]pyrimidine-6-carboxamide]
–	100 to 1000	100 to 1000	C[C@@]1(C(F)(F)F)CN(C(=O)NC2CCC(F)(F)CC2)c2cnc3cc(Cl)nn3c21 [compound 37, (R)-2-chloro-N-(4,4-difluorocyclohexyl)-8-methyl-8-(trifluoromethyl)-7,8-dihydro-6H-pyrazolo[1,5-a]pyrrolo[2,3-e]pyrimidine-6-carboxamide]
100 to 1000	10 to 100	10 to 100	C[C@@]1(C(F)(F)F)CN(C(=O)Nc2cnc(C#N)c(Cl)c2)c2cnc3cc(Cl)nn3c21 [compound 42, (R)-2-chloro-N-(5-chloro-6-cyanopyridin-3-yl)-8-methyl-8-(trifluoromethyl)-7,8-dihydro-6H-pyrazolo[1,5-a]pyrrolo[2,3-e]pyrimidine-6-carboxamide]
–	10 to 100	–	CC1(C(F)(F)F)CN(C(=O)Nc2cnc(-n3nccn3)c(Cl)c2)c2cnc3cc(C#N)nn3c21 (stereo not shown) [compound 17, N-[5-chloro-6-(triazol-2-yl)-3-pyridyl]-11-cyano-3-methyl-3-(trifluoromethyl)-1,5,8,12-tetrazatricyclo[7.3.0.02,6]dodeca-2(6),7,9,11-tetraene-5-carboxamide]
10 to 100	< 10	–	COc1nc(-n2nccn2)c(Cl)cc1NC(=O)N1C[C@@](C)(C(F)(F)F)c2c1cnc1cc(Cl)nn21 [compound 52, (R)-2-chloro-N-(5-chloro-2-methoxy-6-(2H-1,2,3-triazol-2-yl)pyridin-3-yl)-8-methyl-8-(trifluoromethyl)-7,8-dihydro-6H-pyrazolo[1,5-a]pyrrolo[2,3-e]pyrimidine-6-carboxamide]
–	10 to 100	–	CNc1ncc(NC(=O)N2C[C@@](C)(C(F)(F)F)c3c2cnc2cc(Cl)nn32)cc1Cl [compound 51, (R)-2-chloro-N-(5-chloro-6-(methylamino)pyridin-3-yl)-8-methyl-8-(trifluoromethyl)-7,8-dihydro-6H-pyrazolo[1,5-a]pyrrolo[2,3-e]pyrimidine-6-carboxamide]
